Holding throughout (type): cell-based
In one experiment the test system is Toledo cells. Put plainly: Cell proliferation assay (MTS), Toledo cells. Particulars: Homo sapiens, 72 h. A digest of the protocol:
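Toledo cells (RPMI-1640, 10% FBS) seeded at 30000 cells/well, rested 4 h, then exposed 72 h at 37 °C, 5% CO2 to compound at nine final concentrations, 1.5–10000 nM. Viability by MTS (2 h), absorbance at 490 nm. IC50 from the concentration-response.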

In the next experiment the test system is RS4;11-BCL-2 G101V cells. Put plainly: Cell proliferation assay (MTS), RS4;11-BCL-2 G101V engineered cells. To be noted: Homo sapiens, 120 h, read-out: RS4, 11 BCL2-G101V IC50. An outline of the steps:
(§1)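 RS4;11 cells stably overexpressing mutant BCL-2 were seeded and pre-incubated 4 h (G101V, F104L) or 24 h (D103E, D103Y), then exposed to compound at 1.5–10000 nM for 120 h (G101V, F104L) or 72 h (D103E, D103Y) at 37 °C. Viability was read by MTS absorbance at 490 nm after 2 h; IC50 fitted.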

Another experiment has as its system RS4;11-BCL-2 D103E cells. Put plainly: Cell proliferation assay (MTS), RS4;11-BCL-2 D103E engineered cells. Particulars: Homo sapiens, 72 h, read-out: RS4, 11 BCL2-D103E IC50. An outline of the steps:
as §1

Each structure is given as a SMILES string.

One may read the IC50 as the point on the concentration scale where inhibition reaches its midpoint. Consider `COc1cc(CN2CCN(C3CC4(CCN(c5ccc(C(=O)NS(=O)(=O)c6cnc(NC[C@H]7CC[C@](C)(O)CC7)c([N+](=O)[O-])c6)c(Oc6cnc7[nH]cc(F)c7c6)c5)CC4)C3)[C@H](c3ccccc3C(C)C)C2)ccc1C1CC1` [Example 73, 4-(2-((R)-4-(4-cyclopropyl-3-methoxybenzyl)-2-(2-isopropylphenyl)piperazin-1-yl)-7-azaspiro[3.5]nonan-7-yl)-2-((3-fluoro-1H-pyrrolo[2,3-b]pyridin-5-yl)oxy)-N-((6-((((1r,4r)-4-hydroxy-4-methylcyclohexyl)methyl)amino)-5-nitropyridin-3-yl)sulfonyl)benzamide], for which the IC50 is 1 nM in the experiment on Toledo cells, 1 nM in the experiment on RS4;11-BCL-2 G101V cells and 3 nM in the experiment with RS4;11-BCL-2 D103E cells.

Consider `CCOc1nc2[nH]cc(F)c2cc1Oc1cc(N2CCC3(CC2)CC(N2CCN(Cc4ccc(OC)nc4)C[C@H]2c2ccccc2C(C)C)C3)ccc1C(=O)NS(=O)(=O)c1cnc(NC[C@H]2CC[C@](C)(O)CC2)c([N+](=O)[O-])c1` [Example 120, 2-((6-ethoxy-3-fluoro-1H-pyrrolo[2,3-b]pyridin-5-yl)oxy)-N-((6-((((1r,4r)-4-hydroxy-4-methylcyclohexyl)methyl)amino)-5-nitropyridin-3-yl)sulfonyl)-4-(2-((R)-2-(2-isopropylphenyl)-4-((6-methoxypyridin-3-yl)methyl)piperazin-1-yl)-7-azaspiro[3.5]nonan-7-yl)benzamide], for which the half-inhibitory concentration (IC50) in the experiment with Toledo cells, in the experiment on RS4;11-BCL-2 G101V cells and with RS4;11-BCL-2 D103E cells was 1 nM throughout.

`COc1ccc(CN2CCN(C3CC4(CCN(c5ccc(C(=O)NS(=O)(=O)c6cnc(NC[C@H]7CC[C@](C)(O)CC7)c([N+](=O)[O-])c6)c(Oc6cc7c(F)c[nH]c7nc6OC)c5)CC4)C3)[C@H](c3ccccc3C(C)C)C2)nc1` [Example 122, 2-((3-fluoro-6-methoxy-1H-pyrrolo[2,3-b]pyridin-5-yl)oxy)-N-((6-((((1r,4r)-4-hydroxy-4-methylcyclohexyl)methyl)amino)-5-nitropyridin-3-yl)sulfonyl)-4-(2-((R)-2-(2-isopropylphenyl)-4-((5-methoxypyridin-2-yl)methyl)piperazin-1-yl)-7-azaspiro[3.5]nonan-7-yl)benzamide]: the IC50 worked out at 1 nM in the experiment on Toledo cells, 1 nM in the experiment on RS4;11-BCL-2 G101V cells and 3 nM with RS4;11-BCL-2 D103E cells.

As to `COc1nc2[nH]cc(F)c2cc1Oc1cc(N2CCC3(CC2)CC(N2CCN(Cc4cnn(C5CC5)c4)C[C@H]2c2ccccc2C(C)C)C3)ccc1C(=O)NS(=O)(=O)c1cnc(NC[C@H]2CC[C@](C)(O)CC2)c([N+](=O)[O-])c1` [Example 133, 4-(2-((R)-4-((1-cyclopropyl-1H-pyrazol-4-yl)methyl)-2-(2-isopropylphenyl)piperazin-1-yl)-7-azaspiro[3.5]nonan-7-yl)-2-((3-fluoro-6-methoxy-1H-pyrrolo[2,3-b]pyridin-5-yl)oxy)-N-((6-((((1r,4r)-4-hydroxy-4-methylcyclohexyl)methyl)amino)-5-nitropyridin-3-yl)sulfonyl)benzamide], the values for the concentration for half-maximal inhibition (IC50) in the experiment on Toledo cells, in the experiment with RS4;11-BCL-2 G101V cells and in the experiment with RS4;11-BCL-2 D103E cells were 1 nM, 1 nM and 2 nM, respectively.

For the compound `CCOc1nc2[nH]cc(F)c2cc1Oc1cc(N2CCC3(CC2)CC(N2CCN(CC)C[C@H]2c2ccccc2C(C)C)C3)ccc1C(=O)NS(=O)(=O)c1cnc(NC[C@H]2CC[C@](C)(O)CC2)c([N+](=O)[O-])c1` [Example 141, 2-((6-ethoxy-3-fluoro-1H-pyrrolo[2,3-b]pyridin-5-yl)oxy)-4-(2-((R)-4-ethyl-2-(2-isopropylphenyl)piperazin-1-yl)-7-azaspiro [3.5]nonan-7-yl)-N-((6-((((1r,4r)-4-hydroxy-4-methylcyclohexyl)methyl)amino)-5-nitropyridin-3-yl)sulfonyl)benzamide], the IC50 in the experiment on Toledo cells, in the experiment with RS4;11-BCL-2 G101V cells and in the experiment on RS4;11-BCL-2 D103E cells was 1 nM throughout.

With `COCCN1CCN(C2CC3(CCN(c4ccc(C(=O)NS(=O)(=O)c5cnc(NC[C@H]6CC[C@](C)(O)CC6)c([N+](=O)[O-])c5)c(Oc5cnc6[nH]cc(F)c6c5)c4)CC3)C2)[C@H](c2ccccc2C(C)C)C1` [Example 203, 2-((3-fluoro-1H-pyrrolo[2,3-b]pyridin-5-yl)oxy)-N-((6-((((1r,4r)-4-hydroxy-4-methylcyclohexyl)methyl)amino)-5-nitropyridin-3-yl)sulfonyl)-4-(2-((R)-2-(2-isopropylphenyl)-4-(2-methoxyethyl)piperazin-1-yl)-7-azaspiro[3.5]nonan-7-yl)benzamide], the IC50 with Toledo cells, with RS4;11-BCL-2 G101V cells and with RS4;11-BCL-2 D103E cells was 1 nM each time.

`COc1cc(CN2CCN(C3CC4(CCN(c5ccc(C(=O)NS(=O)(=O)c6cnc(NC[C@H]7CC[C@](C)(O)CC7)c([N+](=O)[O-])c6)c(Oc6cnc7[nH]cc(F)c7c6)c5)CC4)C3)[C@H](c3ccccc3C(C)C)C2)ccn1` [Example 243, 2-((3-fluoro-1H-pyrrolo[2,3-b]pyridin-5-yl)oxy)-N-((6-((((1r,4r)-4-hydroxy-4-methylcyclohexyl)methyl)amino)-5-nitropyridin-3-yl)sulfonyl)-4-(2-((R)-2-(2-isopropylphenyl)-4-((2-methoxypyridin-4-yl)methyl)piperazin-1-yl)-7-azaspiro[3.5]nonan-7-yl)benzamide]: the IC50 with Toledo cells, with RS4;11-BCL-2 G101V cells and in the experiment on RS4;11-BCL-2 D103E cells was 1 nM throughout.

For the compound `COc1ccc(CN2CCN(C3CC4(CCN(c5ccc(C(=O)NS(=O)(=O)c6cnc(NC[C@H]7CC[C@](C)(O)CC7)c([N+](=O)[O-])c6)c(Oc6cnc7[nH]cc(F)c7c6)c5)CC4)C3)[C@H](c3ccccc3C(C)C)C2)c2nc(C)oc12` [Example 244, 2-((3-fluoro-1H-pyrrolo[2,3-b]pyridin-5-yl)oxy)-N-((6-((((1r,4r)-4-hydroxy-4-methylcyclohexyl)methyl)amino)-5-nitropyridin-3-yl)sulfonyl)-4-(2-((R)-2-(2-isopropylphenyl)-4-((7-methoxy-2-methylbenzo[d]oxazol-4-yl)methyl)piperazin-1-yl)-7-azaspiro[3.5]nonan-7-yl)benzamide], the IC50 in the experiment with Toledo cells, with RS4;11-BCL-2 G101V cells and with RS4;11-BCL-2 D103E cells was 1 nM in each case.

For the compound `CC(C)c1ccccc1[C@@H]1CN(Cc2cnn(C3CC3)c2)CCN1C1CC2(CCN(c3ccc(C(=O)NS(=O)(=O)c4cnc(NC[C@H]5CC[C@](C)(O)CC5)c([N+](=O)[O-])c4)c(Oc4cnc5[nH]cc(F)c5c4)c3)CC2)C1` [Example 247, 4-(2-((R)-4-((1-cyclopropyl-1H-pyrazol-4-yl)methyl)-2-(2-isopropylphenyl)piperazin-1-yl)-7-azaspiro[3.5]nonan-7-yl)-2-((3-fluoro-1H-pyrrolo[2,3-b]pyridin-5-yl)oxy)-N-((6-((((1r,4r)-4-hydroxy-4-methylcyclohexyl)methyl)amino)-5-nitropyridin-3-yl)sulfonyl)benzamide], the IC50 with Toledo cells, in the experiment on RS4;11-BCL-2 G101V cells and with RS4;11-BCL-2 D103E cells was 1 nM each time.

Consider `COc1c(F)cc(CN2CCN(C3CC4(CCN(c5ccc(C(=O)NS(=O)(=O)c6cnc(NC[C@H]7CC[C@](C)(O)CC7)c([N+](=O)[O-])c6)c(Oc6cnc7[nH]cc(F)c7c6)c5)CC4)C3)[C@H](c3ccccc3C(C)C)C2)cc1F` [Example 248, 4-(2-((R)-4-(3,5-difluoro-4-methoxybenzyl)-2-(2-isopropylphenyl)piperazin-1-yl)-7-azaspiro[3.5]nonan-7-yl)-2-((3-fluoro-1H-pyrrolo[2,3-b]pyridin-5-yl)oxy)-N-((6-((((1r,4r)-4-hydroxy-4-methylcyclohexyl)methyl)amino)-5-nitropyridin-3-yl)sulfonyl)benzamide], for which the IC50 in the experiment with Toledo cells came to 1 nM; in the experiment on RS4;11-BCL-2 G101V cells, 1 nM; in the experiment with RS4;11-BCL-2 D103E cells, 3 nM.

In the case of `COc1ccc(CN2CCN(C3CC4(CCN(c5ccc(C(=O)NS(=O)(=O)c6cnc(NC[C@H]7CC[C@](C)(O)CC7)c([N+](=O)[O-])c6)c(Oc6cnc7[nH]cc(F)c7c6)c5)CC4)C3)[C@H](c3ccccc3C(C)C)C2)cn1` [Example 252, 2-((3-fluoro-1H-pyrrolo[2,3-b]pyridin-5-yl)oxy)-N-((6-((((1r,4r)-4-hydroxy-4-methylcyclohexyl)methyl)amino)-5-nitropyridin-3-yl)sulfonyl)-4-(2-((R)-2-(2-isopropylphenyl)-4-((6-methoxypyridin-3-yl)methyl)piperazin-1-yl)-7-azaspiro[3.5]nonan-7-yl)benzamide], the IC50 in the experiment with Toledo cells, with RS4;11-BCL-2 G101V cells and with RS4;11-BCL-2 D103E cells was 1 nM throughout.

The values are drawn from patent US20250122191A1, “COMPOUNDS AS BCL-2 INHIBITORS” (Fochon Biosciences, Ltd, priority 2021, published 2025).
